Key:
Assay type in all cases: cell-based
T-47D = assay: NCI 60 antitumor screening (single dose / five doses); settings: Homo sapiens, T47D; T-47D (breast cancer), single dose 10 μM; read-out: Growth inhibition percentage (GI %)
HCT-116 = assay: as above; settings: Homo sapiens; HCT-116 (colon cancer), single dose 10 μM; read-out: Growth inhibition percentage (GI %)
NCI/ADR-RES = assay: as above; settings: Homo sapiens; NCI/ADR-RES (ovarian cancer), single dose 10 μM; read-out: Growth inhibition percentage (GI %)
DU-145 = assay: as above; settings: Homo sapiens; DU-145 (prostate cancer), single dose 10 μM; read-out: Growth inhibition percentage (GI %)
LOX IMVI = assay: as above; settings: Homo sapiens; LOX IMVI (melanoma), single dose 10 μM; read-out: Growth inhibition percentage (GI %)
SNB-75 = assay: as above; settings: Homo sapiens; SNB-75 (CNS cancer), single dose 10 μM; read-out: Growth inhibition percentage (GI %)
BT-549 = assay: as above; settings: Homo sapiens; BT-549 (breast cancer), single dose 10 μM; read-out: Growth inhibition percentage (GI %)
MCF7 = assay: NCI 60 antitumor screening (single dose); settings: Homo sapiens; MCF7 (breast cancer), single dose 10 μM; read-out: Growth inhibition percentage (GI %)
In short: (§1)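 At one concentration (10 μM), compounds are run in triplicate on 60 human cancer lines per the NCI method. Treated-cell growth is recorded as G%. Reported inhibition equals 100 − G%.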

HS 578T = assay: NCI 60 antitumor screening (single dose); settings: Homo sapiens; HS 578T (breast cancer), single dose 10 μM; read-out: Growth inhibition percentage (GI %)
In short: as §1

HOP-62 = assay: NCI 60 antitumor screening (single dose); settings: Homo sapiens; HOP-62 (non-small cell lung cancer), single dose 10 μM; read-out: Growth inhibition percentage (GI %)
In short: (§2)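 GI% derived as 100 − G% from triplicate growth measurements in the NCI 60 human tumour panel, compound 10 μM, single dose, per NCI protocol.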

PC-3 = assay: NCI 60 antitumor screening (single dose); settings: Homo sapiens; PC-3 (prostate cancer), single dose 10 μM; read-out: Growth inhibition percentage (GI %)
In short: as §1

HCC-2998 = assay: NCI 60 antitumor screening (single dose); settings: Homo sapiens; HCC-2998 (colon cancer), single dose 10 μM; read-out: Growth inhibition percentage (GI %)
In short: as §2

KM 12 = assay: NCI 60 antitumor screening (single dose); settings: Homo sapiens, KM12; KM 12 (colon cancer), single dose 10 μM; read-out: Growth inhibition percentage (GI %)
In short: as §1

OVCAR-4 = assay: NCI 60 antitumor screening (single dose); settings: Homo sapiens; OVCAR-4 (ovarian cancer), single dose 10 μM; read-out: Growth inhibition percentage (GI %)
In short: as §1

NCI-H322M = assay: NCI 60 antitumor screening (single dose); settings: Homo sapiens; NCI-H322M (non-small cell lung cancer), single dose 10 μM; read-out: Growth inhibition percentage (GI %)
In short: as §1

NCI-H226 = assay: NCI 60 antitumor screening (single dose); settings: Homo sapiens; NCI-H226 (non-small cell lung cancer), single dose 10 μM; read-out: Growth inhibition percentage (GI %)
In short: as §1

A549/ATCC = assay: NCI 60 antitumor screening (single dose); settings: Homo sapiens; A549/ATCC (non-small cell lung cancer), single dose 10 μM; read-out: Growth inhibition percentage (GI %)
In short: as §1

OVCAR-5 = assay: NCI 60 antitumor screening (single dose); settings: Homo sapiens; OVCAR-5 (ovarian cancer), single dose 10 μM; read-out: Growth inhibition percentage (GI %)
In short: as §2

M14 = assay: NCI 60 antitumor screening (single dose); settings: Homo sapiens; M14 (melanoma), single dose 10 μM; read-out: Growth inhibition percentage (GI %)
In short: as §1

U251 = assay: NCI 60 antitumor screening (single dose); settings: Homo sapiens, U-251; U251 (CNS cancer), single dose 10 μM; read-out: Growth inhibition percentage (GI %)
In short: as §2

NCI-H522 = assay: NCI 60 antitumor screening (single dose); settings: Homo sapiens; NCI-H522 (non-small cell lung cancer), single dose 10 μM; read-out: Growth inhibition percentage (GI %)
In short: as §2

OVCAR-8 = assay: NCI 60 antitumor screening (single dose); settings: Homo sapiens; OVCAR-8 (ovarian cancer), single dose 10 μM; read-out: Growth inhibition percentage (GI %)
In short: as §1

TK-10 = assay: NCI 60 antitumor screening (single dose); settings: Homo sapiens; TK-10 (renal cancer), single dose 10 μM; read-out: Growth inhibition percentage (GI %)
In short: as §1

SNB-19 = assay: NCI 60 antitumor screening (single dose); settings: Homo sapiens; SNB-19 (CNS cancer), single dose 10 μM; read-out: Growth inhibition percentage (GI %)
In short: as §1

SK-OV-3 = assay: NCI 60 antitumor screening (single dose); settings: Homo sapiens; SK-OV-3 (ovarian cancer), single dose 10 μM; read-out: Growth inhibition percentage (GI %)
In short: as §2

NCI-H23 = assay: NCI 60 antitumor screening (single dose); settings: Homo sapiens; NCI-H23 (non-small cell lung cancer), single dose 10 μM; read-out: Growth inhibition percentage (GI %)
In short: as §2

CAKI-1 = assay: NCI 60 antitumor screening (single dose); settings: Homo sapiens; CAKI-1 (renal cancer), single dose 10 μM; read-out: Growth inhibition percentage (GI %)
In short: as §1

## Oc1ccc(/C=N/Nc2nc(N/N=C/c3ccc(O)c(O)c3)nc(N3CCOCC3)n2)cc1O [compound 6j, 4-[(1e)-(2-{4-[(E)-2-[(3,4-Dihydroxyphenyl)methylidene]hydrazin-1-yl]-6-(morpholin-4-yl)-1,3,5-triazin-2-yl}hydrazin-1-ylidene)methyl]benzene-1,2-diol]
T-47D
  inhibition at 10 µM: 7.67%
HCT-116
  inhibition at 10 µM: -6.01%
NCI/ADR-RES
  inhibition at 10 µM: -5.32%
DU-145
  inhibition at 10 µM: -5.37%
LOX IMVI
  inhibition at 10 µM: -5.85%
SNB-75
  inhibition at 10 µM: -1.54%
BT-549
  inhibition at 10 µM: -9.12%
MCF7
  inhibition at 10 µM: 5.79%
HS 578T
  inhibition at 10 µM: -5.42%
HOP-62
  inhibition at 10 µM: -5.33%
PC-3
  inhibition at 10 µM: -5.8%
HCC-2998
  inhibition at 10 µM: -6.4%
KM 12
  inhibition at 10 µM: -1.91%
OVCAR-4
  inhibition at 10 µM: -1.23%
NCI-H322M
  inhibition at 10 µM: 9.4%
NCI-H226
  inhibition at 10 µM: 1.59%
A549/ATCC
  inhibition at 10 µM: 1.02%
OVCAR-5
  inhibition at 10 µM: -3.8%
M14
  inhibition at 10 µM: -4.69%
U251
  inhibition at 10 µM: -3.1%
NCI-H522
  inhibition at 10 µM: 3.1%
OVCAR-8
  inhibition at 10 µM: -0.99%
TK-10
  inhibition at 10 µM: -9.62%
SNB-19
  inhibition at 10 µM: -4.37%
SK-OV-3
  inhibition at 10 µM: -7.04%
NCI-H23
  inhibition at 10 µM: 0.57%
CAKI-1
  inhibition at 10 µM: 0.69%

## C(=N\Nc1nc(N/N=C/c2ccc3c(c2)OCO3)nc(N2CCOCC2)n1)/c1ccc2c(c1)OCO2 [compound 6k, 2,4-Bis[(E)-2-(2H-1,3-Benzodioxol-5-ylmethylidene)hydrazin-1-yl]-6-(morpholin-4-yl)-1,3,5-triazine]
T-47D
  inhibition at 10 µM: 23.8%
HCT-116
  inhibition at 10 µM: 37.1%
NCI/ADR-RES
  inhibition at 10 µM: 23.3%
DU-145
  inhibition at 10 µM: 23.9%
LOX IMVI
  inhibition at 10 µM: 30.1%
SNB-75
  inhibition at 10 µM: 13.4%
BT-549
  inhibition at 10 µM: 5.57%
MCF7
  inhibition at 10 µM: 30.9%
HS 578T
  inhibition at 10 µM: 16.7%
HOP-62
  inhibition at 10 µM: 13.6%
PC-3
  inhibition at 10 µM: 30.1%
HCC-2998
  inhibition at 10 µM: 8.26%
KM 12
  inhibition at 10 µM: 17.4%
OVCAR-4
  inhibition at 10 µM: 8.16%
NCI-H322M
  inhibition at 10 µM: 11.8%
NCI-H226
  inhibition at 10 µM: 22%
A549/ATCC
  inhibition at 10 µM: 17.7%
OVCAR-5
  inhibition at 10 µM: -1.78%
M14
  inhibition at 10 µM: 5.09%
U251
  inhibition at 10 µM: 24.1%
NCI-H522
  inhibition at 10 µM: 12.5%
OVCAR-8
  inhibition at 10 µM: 26%
TK-10
  inhibition at 10 µM: -3.24%
SNB-19
  inhibition at 10 µM: 5.57%
SK-OV-3
  inhibition at 10 µM: -11.8%
NCI-H23
  inhibition at 10 µM: 17%
CAKI-1
  inhibition at 10 µM: 21.1%

## Fc1cccc(Cl)c1/C=N/Nc1nc(N/N=C/c2c(F)cccc2Cl)nc(N2CCOCC2)n1 [compound 6l, 2,4-Bis[(E)-2-[(2-Chloro-6-fluorophenyl)methylidene]hydrazin-1-yl]-6-(morpholin-4-yl)-1,3,5-triazine]
T-47D
  inhibition at 10 µM: 29.5%
HCT-116
  inhibition at 10 µM: 16.4%
NCI/ADR-RES
  inhibition at 10 µM: 16.8%
DU-145
  inhibition at 10 µM: 4.76%
LOX IMVI
  inhibition at 10 µM: 5.3%
SNB-75
  inhibition at 10 µM: 9.55%
BT-549
  inhibition at 10 µM: -1.45%
MCF7
  inhibition at 10 µM: 29%
HS 578T
  inhibition at 10 µM: 5%
HOP-62
  inhibition at 10 µM: 6.23%
PC-3
  inhibition at 10 µM: 19.3%
HCC-2998
  inhibition at 10 µM: 5.25%
KM 12
  inhibition at 10 µM: 18.9%
OVCAR-4
  inhibition at 10 µM: 32.8%
NCI-H322M
  inhibition at 10 µM: 16.2%
NCI-H226
  inhibition at 10 µM: 20.4%
A549/ATCC
  inhibition at 10 µM: 21%
OVCAR-5
  inhibition at 10 µM: -12.4%
M14
  inhibition at 10 µM: 27.8%
U251
  inhibition at 10 µM: 11.8%
NCI-H522
  inhibition at 10 µM: 14.4%
OVCAR-8
  inhibition at 10 µM: 15.5%
TK-10
  inhibition at 10 µM: -16.5%
SNB-19
  inhibition at 10 µM: 12.9%
SK-OV-3
  inhibition at 10 µM: 7.59%
NCI-H23
  inhibition at 10 µM: 27.2%
CAKI-1
  inhibition at 10 µM: 17.5%

## Brc1ccccc1/C=N/Nc1nc(N/N=C/c2ccccc2Br)nc(N2CCCCC2)n1 [compound 7b, 2,4-Bis[(E)-2-[(2-Bromophenyl)methylidene]hydrazin-1-yl]-6-(piperidin-1-yl)-1,3,5-triazine]
T-47D
  inhibition at 10 µM: 11.2%
HCT-116
  inhibition at 10 µM: -2.25%
NCI/ADR-RES
  inhibition at 10 µM: -2.41%
DU-145
  inhibition at 10 µM: -4.47%
LOX IMVI
  inhibition at 10 µM: 1.94%
SNB-75
  inhibition at 10 µM: -2.35%
BT-549
  inhibition at 10 µM: -5.26%
MCF7
  inhibition at 10 µM: 13.2%
HS 578T
  inhibition at 10 µM: -5.25%
HOP-62
  inhibition at 10 µM: 1.14%
PC-3
  inhibition at 10 µM: 5.07%
HCC-2998
  inhibition at 10 µM: -7.41%
KM 12
  inhibition at 10 µM: 2%
OVCAR-4
  inhibition at 10 µM: 0.53%
NCI-H322M
  inhibition at 10 µM: 3.65%
NCI-H226
  inhibition at 10 µM: 10.9%
A549/ATCC
  inhibition at 10 µM: -2.25%
OVCAR-5
  inhibition at 10 µM: 0.1%
M14
  inhibition at 10 µM: -4.12%
U251
  inhibition at 10 µM: -2.15%
NCI-H522
  inhibition at 10 µM: 6.02%
OVCAR-8
  inhibition at 10 µM: -1.21%
TK-10
  inhibition at 10 µM: -16.5%
SNB-19
  inhibition at 10 µM: 3.76%
SK-OV-3
  inhibition at 10 µM: -0.76%
NCI-H23
  inhibition at 10 µM: 4.71%
CAKI-1
  inhibition at 10 µM: 3.19%

Reference: PMC9848300, “Discovery of novel enasidenib analogues targeting inhibition of mutant isocitrate dehydrogenase 2 as antileukaemic agents” (Journal of Enzyme Inhibition and Medicinal Chemistry, 2023)
